Laboratory results as given in US11739077B2, “Small molecule inhibitors of ubiquitin specific protease 1 (USP1) and uses thereof” (Insilico Medicine IP Limited, priority 2021, dated 2023).

Columns and labels:
MDA-MB-436 cells = experiment: MDA-MB-436 breast cancer cell proliferation assay (CellTiter-Glo); type: cell-based; details: Homo sapiens, 168 h, 7 days
Method: MDA-MB-436 cells were grown in Leibovitz's L-15 medium with 10 ug/ml insulin, 16 ug/ml glutathione, 10% FBS. Cells were passaged at subconfluence after trypsinization and maintained in incubators at 37° C. in a humidified atmosphere with 5% CO2.
Cell proliferation was determined using CellTiter-Glo® Luminescent Cell Viability Assay (Promega, #G7573). MDA-MB-436 cells were seeded in 384-well plates and allowed to attach for 24 h. Compounds were added into 384-well plate by ECHO, and incubated at 37° C. in a humidified atmosphere with 5% CO2. After 7 days, CellTiter-Glo was added into 384 well plates, contents were mixed on an orbital shaker at […] for 2 min before centrifuging the plate for 2 min at 1000 rpm. After incubation at RT for 30 min, luminescence was read on envision.

[1] = target: Human recombinant USP1/UAF1 (Homo sapiens (Human), UniProt O94782); experiment: Enzymatic assay, USP1/UAF1 with Ubiquitin Rhodamine 110; type: biochemical; details: 2 nM USP1/UAF1, 500 nM Ubiquitin Rhodamine 110, 15 minutes preincubation at RT
Human recombinant USP1/UAF1, sequence (O94782 whole entry): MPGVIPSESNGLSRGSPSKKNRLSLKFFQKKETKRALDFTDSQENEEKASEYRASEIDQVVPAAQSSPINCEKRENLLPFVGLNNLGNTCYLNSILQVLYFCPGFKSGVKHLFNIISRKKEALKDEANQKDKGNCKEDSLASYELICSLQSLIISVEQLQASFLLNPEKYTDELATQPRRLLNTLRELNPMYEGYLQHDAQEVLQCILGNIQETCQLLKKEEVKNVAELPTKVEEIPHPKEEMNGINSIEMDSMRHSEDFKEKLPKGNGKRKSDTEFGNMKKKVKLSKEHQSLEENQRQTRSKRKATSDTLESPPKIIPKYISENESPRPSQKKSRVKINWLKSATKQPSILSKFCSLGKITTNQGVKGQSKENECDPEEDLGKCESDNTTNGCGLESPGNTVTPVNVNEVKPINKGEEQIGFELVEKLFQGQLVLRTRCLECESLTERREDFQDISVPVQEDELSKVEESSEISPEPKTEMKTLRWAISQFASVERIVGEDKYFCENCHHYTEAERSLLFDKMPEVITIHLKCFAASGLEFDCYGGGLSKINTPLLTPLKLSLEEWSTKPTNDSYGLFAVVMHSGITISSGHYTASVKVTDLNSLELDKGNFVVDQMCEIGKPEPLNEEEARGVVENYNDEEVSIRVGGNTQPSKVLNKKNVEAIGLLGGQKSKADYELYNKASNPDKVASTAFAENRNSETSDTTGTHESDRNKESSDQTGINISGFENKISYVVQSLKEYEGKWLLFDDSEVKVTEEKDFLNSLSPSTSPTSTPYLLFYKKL
Human recombinant USP1/UAF1, sequence (Q8TAF3 whole entry partner): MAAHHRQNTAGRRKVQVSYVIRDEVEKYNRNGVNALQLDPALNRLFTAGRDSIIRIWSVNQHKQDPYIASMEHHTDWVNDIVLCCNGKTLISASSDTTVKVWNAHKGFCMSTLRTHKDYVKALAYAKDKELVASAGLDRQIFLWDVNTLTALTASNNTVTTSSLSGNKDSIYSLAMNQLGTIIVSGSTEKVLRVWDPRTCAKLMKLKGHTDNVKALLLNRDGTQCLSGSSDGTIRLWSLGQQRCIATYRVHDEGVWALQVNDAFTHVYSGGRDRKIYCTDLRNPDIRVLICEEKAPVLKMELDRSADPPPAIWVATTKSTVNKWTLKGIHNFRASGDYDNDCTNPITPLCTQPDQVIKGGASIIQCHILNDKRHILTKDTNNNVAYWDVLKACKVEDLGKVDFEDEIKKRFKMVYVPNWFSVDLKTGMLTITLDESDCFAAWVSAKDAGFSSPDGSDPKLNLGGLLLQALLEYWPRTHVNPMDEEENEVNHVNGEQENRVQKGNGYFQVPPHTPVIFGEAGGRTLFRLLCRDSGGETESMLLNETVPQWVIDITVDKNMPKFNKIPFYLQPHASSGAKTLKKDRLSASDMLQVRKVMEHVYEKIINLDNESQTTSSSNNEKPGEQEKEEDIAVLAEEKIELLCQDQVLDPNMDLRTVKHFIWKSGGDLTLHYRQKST
Method: Human recombinant USP1/UAF1 expressed in baculovirus infected Sf21 cells were used (R&D, E-568-050). Test compound and/or vehicle was incubated with 2 nM of USP1/UAF1 in modified HEPES buffer pH 8.0 for 15 minutes at RT. The reaction was initiated by addition of 500 nM of Ubiquitin Rhodamine 110 (R&D, U-555-050) for kinetic reading. Slope change of fluorescence intensity was read spectrofluorimetrically at 485 nm/535 nm.

`COc1ncnc(C2CC2)c1-c1nn(C)c2c1CN(c1cnc(-c3nc(C(F)(F)F)cn3C)nc1)CC2` [Example 26, 3-(4-cyclopropyl-6-methoxypyrimidin-5-yl)-1-methyl-5-(2-(1-methyl-4-(trifluoromethyl)-1H-imidazol-2-yl)pyrimidin-5-yl)-4,5,6,7-tetrahydro-1H-pyrazolo[4,3-c]pyridine] was tested, and the IC50 (MDA-MB-436 cells) was 50 to 1000 nM and the IC50 [1] was 50 to 1000 nM.

With `[2H]C([2H])([2H])n1nc(-c2c(OC)ncnc2C2CC2)c2c1CCN(c1ccc(-c3nc(C(F)(F)F)cn3C)c(F)c1)C2` [Example 30, 3-(4-cyclopropyl-6-methoxypyrimidin-5-yl)-5-(3-fluoro-4-(1-methyl-4-(trifluoromethyl)-1H-imidazol-2-yl)phenyl)-1-(methyl-d3)-4,5,6,7-tetrahydro-1H-pyrazolo[4,3-c]pyridine] the IC50 (MDA-MB-436 cells) was less than 50 nM and the IC50 [1] was less than 50 nM.

For `CCn1cc(C(F)(F)F)nc1-c1ccc(N2CCc3c(c(-c4c(OC)ncnc4C4CC4)nn3C)C2)nc1` [Example 25, 3-(4-cyclopropyl-6-methoxypyrimidin-5-yl)-5-(5-(1-ethyl-4-(trifluoromethyl)-1H-imidazol-2-yl)pyridin-2-yl)-1-methyl-4,5,6,7-tetrahydro-1H-pyrazolo[4,3-c]pyridine], the IC50 (MDA-MB-436 cells) was less than 50 nM and the IC50 [1] was less than 50 nM.

With `COc1ncnc(C2CC2)c1-c1n[nH]c2c1CN(c1ccc(-c3nc(C(F)(F)F)cn3C(C)C)cn1)CC2` [Example 20, 3-(4-cyclopropyl-6-methoxypyrimidin-5-yl)-5-(5-(1-isopropyl-4-(trifluoromethyl)-1H-imidazol-2-yl)pyridin-2-yl)-4,5,6,7-tetrahydro-1H-pyrazolo[4,3-c]pyridine] the IC50 (MDA-MB-436 cells) was 50 to 1000 nM and the IC50 [1] was 50 to 1000 nM.
